Data as given in patent publication US20050059726A1, “Pyrrolidine-2-ones as factor xa inhibitors” (priority 2001, published 2005).
Structures can show the parent of a compound that is named as a salt.

The compounds below were run against T1, human Factor Xa (Homo sapiens, UniProt P00742) (assay: In vitro assay for inhibition of Factor Xa (1), chromogenic assay). Conditions: substrate N-α-benzyloxycarbonyl-D-Arg-Gly-Arg-p-nitroanilide 200 μM, Ki calculated from IC50.
Format: biochemical
Protocol: • 1. Klimkowski, Valentine Joseph; Kyle, Jeffrey Alan; Masters, John Joseph; Wiley, Michael Robert. PCT Int. Appl. (2000), WO 0039092. In Vitro Assay for Inhibition of Factor Xa (1)
Compounds were diluted from a 10 mM stock solution in dimethylsulfoxide at appropriate concentrations. Assay was performed at room temperature using buffer consisting of: 50 mM Tris-HCl, 150 mM NaCl, 5 mM CaCl2, pH 7.4. containing human Factor Xa (final conc. of 0.0015 U,ml^−1). Compound and enzyme were preincubated for 15 min prior to addition of the substrate (final conc. of 200 μM). The reaction was stopped after 30 min with the addition of soybean trypsin inhibitor or H-D-PHE-PRO-ARG-Chloromethylketone. BioTek EL340 or Tecan Spectrafluoro Plus plate readers were used to monitor the absorbance at 405 nm. To obtain IC50 values the data were analysed using ActivityBase® and XLfit®.
Calculation of Ki values:
Ki=IC50/(1+[Substrate]/Km)
The Ki value for the above assay can be obtained by dividing the IC50 value by 1.6.

T1 sequence (P00742 235-488 limits assumed): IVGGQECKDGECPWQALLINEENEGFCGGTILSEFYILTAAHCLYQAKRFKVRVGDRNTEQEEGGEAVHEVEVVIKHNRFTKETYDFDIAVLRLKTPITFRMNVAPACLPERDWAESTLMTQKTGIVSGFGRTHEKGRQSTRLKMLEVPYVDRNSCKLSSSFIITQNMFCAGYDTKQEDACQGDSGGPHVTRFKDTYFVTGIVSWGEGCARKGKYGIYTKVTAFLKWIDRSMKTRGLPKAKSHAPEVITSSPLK
T1 sequence (P00742 41-179 partner limits assumed): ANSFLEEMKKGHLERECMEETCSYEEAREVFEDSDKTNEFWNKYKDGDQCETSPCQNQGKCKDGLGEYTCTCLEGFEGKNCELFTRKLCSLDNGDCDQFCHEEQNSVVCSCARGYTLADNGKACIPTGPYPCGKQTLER

Row | Structure (SMILES) | Ki
1 | CC(C)(C)c1ccc(N2CC[C@H](NS(=O)(=O)c3ccc4cc(Cl)ccc4c3)C2=O)cc1 [Example 125, N-[(3S)-1-(4-tert-butylphenyl)-2-oxopyrrolidinyl]-6-chloro-2-naphthalenesulfonamide] | < 200 nM
2 | CNS(=O)(=O)c1ccccc1-c1ccc(N2CC[C@H](NS(=O)(=O)/C=C/c3ccc(Cl)s3)C2=O)c(F)c1 [Example 19, 4′-[(3S)-3-({[(E)-2-(5-Chlorothien-2-yl)ethenyl]sulfonyl}amino)-2-oxopyrrolidin-1-yl]-3′-fluoro-N-methyl-1,1′-biphenyl-2-sulfonamide] | < 10 nM
3 | O=C1[C@@H](NS(=O)(=O)c2ccc3cc(Cl)ccc3c2)CCN1c1ccc(I)cc1F [Example 89, 6-Chloro-N-[(3S)-1-(2-fluoro-4-iodophenyl)-2-oxopyrrolidin-3-yl]naphthalene-2-sulfonamide] | < 200 nM
4 | CN(C)c1ccc(N2CC[C@H](NS(=O)(=O)c3ccc4cc(Cl)ccc4c3)C2=O)cc1 [Example 2, 6-Chloro-N-{(3S)-1-[4-(dimethylamino)phenyl]-2-oxopyrrolidin-3-yl}naphthalene-2-sulfonamide] | < 20 nM
5 | O=C1[C@@H](NS(=O)(=O)c2ccc3cc(Cl)ccc3c2)CCN1c1ccc(-c2ccncc2Cl)cc1F [Example 83, 6-chloro-N-{(3S)-1-[4-(3-Chloropyridin-4-yl)-2-fluorophenyl]-2-oxopyrrolidin-3-yl}naphthalene-2-sulfonamide] | < 10 nM
6 | O=C1[C@@H](NS(=O)(=O)/C=C/c2ccc(Cl)s2)CCN1c1ccc(I)cn1 [Example 90, (E)-2-(5-Chlorothien-2-yl)-N-[(3S)-1-(5-iodopyridin-2yl)oxopyrrolidin-3-yl]ethenesulfonamide] | < 1000 nM
7 | CS(=O)(=O)Nc1ccccc1-c1ccc(N2CC[C@H](NS(=O)(=O)/C=C/c3ccc(Cl)s3)C2=O)nc1 [Example 21, (E)-2-(5-Chlorothien-2-yl)-N-[(3S)-1-(5-{2-[(methylsulfonyl)amino]phenyl}pyridin-2-yl)-2-oxopyrrolidin-3-yl]ethenesulfonamide] | < 20 nM
8 | Cc1ccc(-c2ccc(N3CC[C@H](NS(=O)(=O)c4ccc5cc(Cl)ccc5c4)C3=O)c(F)c2)o1 [Example 73, 6-Chloro-N-{(3S)-1-[2-fluoro-4-(5-methyl-2-furyl)phenyl]-2-oxopyrrolidin-3-yl}naphthalene-2-sulfonamide] | < 1000 nM
9 | Cn1cncc1-c1ccc(N2CC[C@H](NS(=O)(=O)c3ccc4cc(Cl)ccc4c3)C2=O)c(F)c1 [Example 85, 6-Chloro-N-{(3S)-1-[2-fluoro-4-(1-methyl-1H-imidazol-5-yl)phenyl]-2-oxopyrrolidin-3-yl}naphthalene-2-sulfonamide] | < 10 nM
10 | CS(=O)(=O)c1ccccc1-c1ccc(N2CC[C@H](NS(=O)(=O)c3cc4cc(Cl)ccc4o3)C2=O)nc1 [Example 23, 5-Chloro-N-((3S)-1-{5-[2-(methylsulfonyl)phenyl]pyridin-2-yl}-2-oxopyrrolidin-3-yl)-1-benzofuran-2-sulfonamide] | < 1000 nM

What follows are compounds tested against T1, human Factor Xa (assay: In vitro assay for inhibition of Factor Xa (2), fluorogenic assay). Conditions: substrate Rhodamine 110, bis-(CBZ-glycylglycyl-L-arginine amide 10 μM), Ki calculated from IC50.
Format: biochemical
In short: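 Enzyme (final 0.0003 U/mL) preincubated 15 min with compound at room temperature in 50 mM Tris-HCl, 150 mM NaCl, 5 mM CaCl2, pH 7.4, then rhodamine 110 bis-(CBZ-Gly-Gly-Arg amide) substrate added (final 10 μM).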

Row | Structure (SMILES) | Ki
11 | CSc1ccccc1-c1cnc(N2CC[C@H](NS(=O)(=O)c3ccc4cc(Cl)ccc4c3)C2=O)s1 [Example 51, 6-Chloro-naphthalene-2-sulphonic Acid [(S)-1-[5-(2-methylsulphanylphenyl)-thiazol-2-yl]-2-oxo:pyrrolidin-3-yl]amide] | < 200 nM
12 | O=C1[C@@H](NS(=O)(=O)c2ccc3cc(Cl)ccc3c2)CCN1c1ccc(-c2ncccc2Cl)cc1F [Example 82, 6-Chloro-N-{(3S)-1-[4-(3-chloropyridin-2-yl)-2-fluorophenyl]-2-oxopyrrolidin-3-yl}naphthalene-2-sulfonamide] | < 10 nM
13 | C[N+](C)(CC(N)=O)Cc1nccn1-c1ccc(N2CC[C@H](NS(=O)(=O)c3cc4ccc(Cl)cc4s3)C2=O)c(F)c1 [Example 144, 2-Amino-N-({1-[4-((3S)-3-{[(6-chloro-1-benzothien-2-yl)sulfonyl]amino}-2-oxopyrrolidin-1-yl)-3-fluorophenyl]-1 H-imidazol-2-yl}methyl)-N,N-dimethyl-2-oxoethanaminium Formate] | < 10 nM
14 | NS(=O)(=O)c1ccccc1-c1ccc(N2CC[C@H](NS(=O)(=O)c3cc4ccc(Cl)cc4s3)C2=O)c(F)c1 [Example 15, N-{(3S)-1-[2′-(Aninosulfonyl)-3-fluoro-1,1′-biphenyl-4-yl]-2-oxopyrrolidin-3-yl}-6-chloro-1-benzothiophene-2-sulfonamide] | < 10 nM
15 | CC(=O)c1ccc(N2CC[C@H](NS(=O)(=O)/C=C/c3ccc(Cl)s3)C2=O)nc1 [Example 113, (E)-N-[(3S)-1-(5-Acetylpyridin-2-yl)-2-oxopyrrolidin-3yl]-2-(5-chlorothien-2-yl)ethenesulfonamide] | < 200 nM
